# “And” between values parts separate entries of the source, which are not always exact repeats. Equal entries are not always repeated.
# Experiments:
# P-gp [1] = molecular target: T1, P-gp (Homo sapiens, UniProt P08183); assay: Rh123 accumulation in non-induced KB cells; assay type: cell-based; conditions: CLA 5 μmol/L, Rh123 5 μmol/L
# T1 construct: three cells expressing P-gp, Caco-2, KBv and rat brain microvessel endothelial cells (RBMEC); endogenous in cells; host or cells: Caco-2
# Method: KB or its vinblastine-resistance derivative KBv cells[19] were maintained on 6-well plates (5 × 10^5 cells/well) in […] medium with 10% FBS, 100 units/mL penicillin and 100 μg/mL streptomycin sulphate at 37°C with 95% air and 5% CO2. After reaching 80%–90% confluence, the two cells were treated with the following agents, respectively: vehicle; (−)CLA (5 or 10 μmol/L); (+)CLA (5 or 10 μmol/L). Additionally, the KBv cells were treated with verapamil (200 μmol/L); or individual enantiomer (5 or 10 μmol/L) plus verapamil (200 μmol/L). Rh123 (5 μmol/L) were finally added to these wells. Subsequently, cell incubation, solubilisation and Rh123 accumulation were performed by using the same method for Caco-2 cells.
# P-gp [2] = assay: Rh123 accumulation in RBMECs; assay type: cell-based, rat; conditions: RBMEC; for Increase in Rh123 accumulation relative to verapamil alone: co-treatment CLA 5 μmol/L with verapamil 200 μmol/L; for Percentage of rhodamine 123 accumulation relative to vehicle treatment: positive = increase
# Method: The experimental programs in this part were approved by the Animal Care and Welfare Committee in our institute. Animals were treated in accordance with national/international guidelines. Primary cultures of brain microvessel endothelial cells were prepared from Sprague—Dawley rats (10–12 days old; Beijing Vital River Company, Beijing, China), as previously described by Qian et al.[21]. The gray matter of animals was taken out and minced into small pieces of approximately 1 mm^3 in ice-cold MEM medium, then dissociated by using 2 mg/mL collagenase containing DNase at a final concentration of 10.5 μg/ml on a shaker for 20 min at 37°C. The cells were pelleted by centrifugation(1000 rpm, 10 min, 4°C) and digested once again according to the above protocol. Then 20% dextran(Mr 40,000) was added to the cells for differential centrifugation at 2000 rpm for 10 min. The cells were re-suspended in complete MEM medium and passed through 74-μm stainless steel mesh. Obtained RBMECs were seeded on 1% (w/v) gelatin-coated culture flasks and cultivated in complete medium (MEM, 20% FBS, 0.9 mg/mL glutamate, 10 mmol/L hepes, 100 ng/mL bFGF, 100 μg/mL heparin sulphate, 100 units/mL penicillin, 100 μg/mL streptomycin sulphate and 50 units/mL amphotericin B) at 37°C and 5% CO2, which was refreshed with complete medium 4 h after seeding to eliminate non-endothelial cells. A final concentration of 2 μg/mL of puromycin was added for 7 h to further purify the cultured cells. The purity of RBMECs was examined by their morphological characteristics using a phase-contrast microscope, and immunocytochemistry of a specific marker, factor VIII-associated antigen, with a rabbit anti-factor VIII polyclonal antibody and FITC-conjugated goat anti-rabbit factor VIII secondary antibody by immunofluorescence microscopy (Olympus IX 70-S1Z2, Olympus Optical CO. Ltd., Japan). The P-gp expression in cultured cells was determined by Western blot analyses using a mouse monoclonal antibody raised against amino acids 1040–1280 of P-gp. When the cultures in the flasks reached 80%–90% confluence, the purified RBMECs were passaged by a brief treatment with trypsin (0.25%, w/v) and EDTA (0.02%, w/v) solution and seeded onto 6-well plates at a density of 5 × 10^5 cells/well; after 2–3 days, incubated with the following agents for 2 h under culture conditions (37°C, 5% CO2 and humidified air): vehicle; (−)CLA (1 or 5 μmol/L); (+)CLA (1 or 5 μmol/L); verapamil (200 μmol/L); or individual enantiomer (1 or 5 μmol/L) plus verapamil (200 μmol/L). In the end, Rh123 (5 μmol/L) was added to the whole wells. The cell incubation, solubilisation and Rh123 accumulation were performed according to the same method for Caco-2 cells described above.
# Primary cultures of brain microvessel endothelial cells were prepared from Sprague–Dawley rats (10–12 days old; Beijing Vital River Company, Beijing, China), as previously described by Qian et al.[21]. Animals were anesthetized by intraperitoneal injection of 20% ethyl carbamate at dose of 1g/kg[35], and sterilized by immersion in 75% alcohol solution for 2 min. The gray matter of these animals was taken out and minced into small pieces of approximately 1 mm^3 in ice-cold MEM medium, then dissociated by using 2 mg/mL collagenase containing DNase at a final concentration of 10.5 μg/ml on a shaker for 20 min at 37°C. The cells were pelleted by centrifugation(1000 rpm, 10 min, 4°C) and digested once again according to the above protocol. Then 20% dextran(Mr 40,000) was added to the cells for differential centrifugation at 2000 rpm for 10 min. The cells were re-suspended in complete MEM medium and passed through 74-μm stainless steel mesh. […]
# [3] = high dose, CLA 5 μmol/L, Rh123 5 μmol/L, 2 h
# [4] = low dose, CLA 1 μmol/L, Rh123 5 μmol/L, 2 h
# T1 sequence (P08183 whole entry): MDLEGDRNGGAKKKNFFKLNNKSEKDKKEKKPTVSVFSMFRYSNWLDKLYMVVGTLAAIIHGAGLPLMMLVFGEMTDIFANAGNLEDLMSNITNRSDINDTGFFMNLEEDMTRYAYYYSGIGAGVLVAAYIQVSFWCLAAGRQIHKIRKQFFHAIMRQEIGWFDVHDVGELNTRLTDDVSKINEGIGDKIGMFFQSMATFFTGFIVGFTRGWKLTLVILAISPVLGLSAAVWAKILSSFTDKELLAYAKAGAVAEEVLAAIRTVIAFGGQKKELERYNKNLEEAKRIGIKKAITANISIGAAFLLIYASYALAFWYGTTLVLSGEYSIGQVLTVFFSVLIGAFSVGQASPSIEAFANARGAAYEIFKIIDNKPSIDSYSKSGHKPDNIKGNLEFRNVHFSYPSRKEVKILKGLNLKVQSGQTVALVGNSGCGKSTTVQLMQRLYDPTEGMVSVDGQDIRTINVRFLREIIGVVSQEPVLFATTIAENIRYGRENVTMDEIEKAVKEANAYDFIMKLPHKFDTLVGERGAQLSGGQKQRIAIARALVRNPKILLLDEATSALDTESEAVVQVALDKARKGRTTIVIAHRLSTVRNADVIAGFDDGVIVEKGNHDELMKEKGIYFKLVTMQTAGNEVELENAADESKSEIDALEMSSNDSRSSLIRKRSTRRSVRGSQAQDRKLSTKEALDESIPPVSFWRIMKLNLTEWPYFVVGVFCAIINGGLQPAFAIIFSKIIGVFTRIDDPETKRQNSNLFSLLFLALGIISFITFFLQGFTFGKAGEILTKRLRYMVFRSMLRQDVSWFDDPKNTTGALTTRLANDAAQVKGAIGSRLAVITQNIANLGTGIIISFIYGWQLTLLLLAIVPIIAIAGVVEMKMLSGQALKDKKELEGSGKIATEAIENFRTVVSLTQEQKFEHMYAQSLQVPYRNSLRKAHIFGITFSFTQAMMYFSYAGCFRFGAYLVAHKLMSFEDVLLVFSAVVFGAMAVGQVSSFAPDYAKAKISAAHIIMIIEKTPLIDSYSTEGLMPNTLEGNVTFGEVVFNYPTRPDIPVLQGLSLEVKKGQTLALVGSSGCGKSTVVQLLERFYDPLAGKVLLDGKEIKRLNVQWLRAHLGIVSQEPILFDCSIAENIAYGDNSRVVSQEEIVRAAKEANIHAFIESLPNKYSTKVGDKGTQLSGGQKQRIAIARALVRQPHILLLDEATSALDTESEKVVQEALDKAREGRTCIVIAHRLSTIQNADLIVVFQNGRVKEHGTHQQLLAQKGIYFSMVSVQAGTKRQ
Increase of Rh123 accumulation vs. control (P-gp [1]),Decrease of Rh123 accumulation vs. control (P-gp [1]),Compound,Increase in Rh123 accumulation relative to verapamil alone (P-gp [2]),Percentage of rhodamine 123 accumulation relative to vehicle treatment (P-gp [2]; [3]),Percentage of rhodamine 123 accumulation relative to vehicle treatment (P-gp [2]; [4]),Rh123 accumulation relative to verapamil alone (in words) (P-gp [2]; verapamil 200 μmol/L plus CLA 1 μmol/L),"Decrease of Rh123 accumulation relative to vehicle control (P-gp [2]; CLA 1 μmol/L, Rh123 5 μmol/L, 2 h)",Decrease in Rh123 accumulation relative to verapamil alone (P-gp [2]; co-treatment of verapamil 200 μmol/L with CLA 1 μmol/L)
18.0%,,"CN1C(=O)[C@@H](O)[C@H](c2ccccc2)[C@@H]1[C@@H](O)c1ccccc1 [(−)CLA, 3S, 4R, 5R, 6S-clausenamide]",24.5%,58.46%,20.0% and 20.04%,slightly increased trend,,
,28.2%,"CN1C(=O)[C@H](O)[C@@H](c2ccccc2)[C@H]1[C@H](O)c1ccccc1 [(+)CLA, 3R,4S,5S,6R-CLA]",18.5%,41.1% and 41.13%,-20.04%,,20.0%,26.5%

# Source: paper PMC4546427, “Stereoselective Regulation of P-gp Activity by Clausenamide Enantiomers in Caco-2, KB/KBv and Brain Microvessel Endothelial Cells” (PLoS ONE, 2015)
